In ChEMBL document CHEMBL4411307, “N,N'-diaryl-bishydrazones in a biphenyl platform: Broad spectrum antifungal agents” (Eur J Med Chem, 2019):
≈ marks a conversion by molar mass, not a printed value. Calls of active or inactive are those of the source. The calls are words filed in the database; no cut-off is given here.

Legend:
Listeria monocytogenes = experiment: Antibacterial activity against Listeria monocytogenes; format: functional, organism-based
Staphylococcus aureus = experiment: Antibacterial activity against methicillin-resistant Staphylococcus aureus; format: functional, organism-based
Enterococcus = experiment: Antibacterial activity against vancomycin-resistant Enterococcus; format: functional, organism-based
Candida albicans [1] = experiment: Antifungal activity against fluconazole/ITC-resistant Candida albicans ATCC 10231 measured after 48 hrs by CLSI M27-A3 protocol based method; format: functional; details: ATCC 10231, 48 h
Candida albicans [2] = experiment: Antifungal activity against fluconazole/ITC-resistant Candida albicans ATCC 64124 measured after 48 hrs by CLSI M27-A3 protocol based method; format: functional; details: ATCC 64124, 48 h
Candida albicans [3] = experiment: Antifungal activity against fluconazole/ITC-susceptible Candida albicans ATCC MYA-2876 measured after 48 hrs by CLSI M27-A3 protocol based method; format: functional; details: ATCC MYA-2876, 48 h
Candida albicans [4] = experiment: Antifungal activity against fluconazole/ITC-resistant Candida albicans ATCC 90819 measured after 48 hrs by CLSI M27-A3 protocol based method; format: functional; details: ATCC 90819, 48 h
Candida albicans [5] = experiment: Antifungal activity against fluconazole/ITC-susceptible Candida albicans ATCC MYA-2310 measured after 48 hrs by CLSI M27-A3 protocol based method; format: functional; details: ATCC MYA-2310, 48 h
Candida albicans [6] = experiment: Antifungal activity against fluconazole/ITC-resistant Candida albicans ATCC MYA-1237 measured after 48 hrs by CLSI M27-A3 protocol based method; format: functional; details: ATCC MYA-1237, 48 h
Candida albicans [7] = experiment: Antifungal activity against fluconazole/ITC-resistant Candida albicans ATCC MYA-1003 measured after 48 hrs by CLSI M27-A3 protocol based method; format: functional; details: ATCC MYA-1003, 48 h
Nakaseomyces glabratus = experiment: Antifungal activity against Candida glabrata ATCC 2001 measured after 48 hrs by CLSI M27-A3 protocol based method; format: functional; details: CBS 138, 48 h
Pichia kudriavzevii = experiment: Antifungal activity against Candida krusei ATCC 6258 measured after 48 hrs by CLSI M27-A3 protocol based method; format: functional; details: ATCC 6258, 48 h
Candida parapsilosis = experiment: Antifungal activity against Candida parapsilosis ATCC 22019 measured after 48 hrs by CLSI M27-A3 protocol based method; format: functional; details: Lodderomyces parapsilosis, ATCC 22019, 48 h
Aspergillus flavus = experiment: Antifungal activity against Aspergillus flavus ATCC MYA-3631 measured after 48 hrs by CLSI M38-A2 protocol based method; format: functional; details: ATCC MYA-3631, 48 h
Aspergillus nidulans = experiment: Antifungal activity against Aspergillus nidulans ATCC 38163 measured after 48 hrs by CLSI M38-A2 protocol based method; format: functional; details: ATCC 38163, 48 h
Aspergillus terreus = experiment: Antifungal activity against Aspergillus terreus ATCC MYA-3633 measured after 48 hrs by CLSI M38-A2 protocol based method; format: functional; details: ATCC MYA-3633, 48 h
A549 = experiment: Cytotoxicity against human A549 cells after 24 hrs by resazurin based assay; format: cell-based; details: a549, 24 h
BEAS-2B = experiment: Cytotoxicity against human BEAS2B cells after 24 hrs by resazurin based assay; format: cell-based
[8] = Selectivity index, ratio of CC50 for human A549 cells to MIC for fluconazole/ITC-resistant Candida albicans ATCC 10231; format: toxicity; details: read-out: Selectivity Index
[9] = Selectivity index, ratio of CC50 for human A549 cells to MIC for fluconazole/ITC-resistant Candida albicans ATCC 64124; format: toxicity; details: read-out: Selectivity Index
[10] = Selectivity index, ratio of CC50 for human A549 cells to MIC for fluconazole/ITC-susceptible Candida albicans ATCC MYA-2876; format: toxicity; details: read-out: Selectivity Index
[11] = Selectivity index, ratio of CC50 for human A549 cells to MIC for fluconazole/ITC-resistant Candida albicans ATCC 90819; format: toxicity; details: read-out: Selectivity Index
[12] = Selectivity index, ratio of CC50 for human A549 cells to MIC for fluconazole/ITC-susceptible Candida albicans ATCC MYA-2310; format: toxicity; details: read-out: Selectivity Index
[13] = Selectivity index, ratio of CC50 for human A549 cells to MIC for fluconazole/ITC-resistant Candida albicans ATCC MYA-1237; format: toxicity; details: read-out: Selectivity Index
[14] = Selectivity index, ratio of CC50 for human A549 cells to MIC for fluconazole/ITC-resistant Candida albicans ATCC MYA-1003; format: toxicity; details: read-out: Selectivity Index
[15] = Selectivity index, ratio of CC50 for human A549 cells to MIC for Candida glabrata ATCC 2001; format: toxicity; details: read-out: Selectivity Index
[16] = Selectivity index, ratio of CC50 for human A549 cells to MIC for Candida krusei ATCC 6258; format: toxicity; details: read-out: Selectivity Index
[17] = Selectivity index, ratio of CC50 for human A549 cells to MIC for Candida parapsilosis ATCC 22019; format: toxicity; details: read-out: Selectivity Index
[18] = Selectivity index, ratio of CC50 for human A549 cells to MIC for Aspergillus flavus ATCC MYA-3631; format: toxicity; details: read-out: Selectivity Index
[19] = Selectivity index, ratio of CC50 for human A549 cells to MIC for Aspergillus nidulans ATCC 38163; format: toxicity; details: read-out: Selectivity Index
[20] = Selectivity index, ratio of CC50 for human A549 cells to MIC for Aspergillus terreus ATCC MYA-3633; format: toxicity; details: read-out: Selectivity Index

Structure (SMILES) | Activity (Listeria monocytogenes) | Activity (Staphylococcus aureus) | Activity (Enterococcus) | MIC (Candida albicans [1]) [µg/mL] | MIC (Candida albicans [2]) [µg/mL] | MIC (Candida albicans [3]) [µg/mL] | MIC (Candida albicans [4]) [µg/mL] | MIC (Candida albicans [5]) [µg/mL] | MIC (Candida albicans [6]) [µg/mL] | MIC (Candida albicans [7]) [µg/mL] | MIC (Nakaseomyces glabratus) [µg/mL] | MIC (Pichia kudriavzevii) [µg/mL] | MIC (Candida parapsilosis) [µg/mL] | MIC (Aspergillus flavus) [µg/mL] | MIC (Aspergillus nidulans) [µg/mL] | MIC (Aspergillus terreus) [µg/mL] | also measured
Fc1ccccc1N/N=C/c1ccc(-c2cccc(/C=N/Nc3ccccc3F)c2)cc1 | inactive | inactive | inactive | 7.8 (≈ 18.3 µM) | 7.8 (≈ 18.3 µM) | > 31.3 | 15.6 (≈ 36.6 µM) | 31.3 (≈ 73.4 µM) | > 31.3 | 7.8 (≈ 18.3 µM) | > 31.3 | 1.95 (≈ 4.57 µM) | 15.6 (≈ 36.6 µM) | 3.9 (≈ 9.14 µM) | 7.8 (≈ 18.3 µM) | > 31.3 | CC50 (A549): 16.4 µg/mL (≈ 38.5 µM); CC50 (BEAS-2B): > 31 µg/mL; selectivity ratio [8]: 2.1; selectivity ratio [9]: 2.1; selectivity ratio [10]: 0.5; selectivity ratio [11]: 1.1; selectivity ratio [12]: 0.5; selectivity ratio [13]: 0.5; selectivity ratio [14]: 2.1; selectivity ratio [15]: 0.5; selectivity ratio [16]: 8.4; selectivity ratio [17]: 1.1; selectivity ratio [18]: > 4.2; selectivity ratio [19]: 2.1; selectivity ratio [20]: 0.5
Brc1ccc(N/N=C/c2ccc(-c3cccc(/C=N/Nc4ccc(Br)cc4)c3)cc2)cc1 | inactive | inactive | inactive | 31.3 (≈ 57.1 µM) | 31.3 (≈ 57.1 µM) | 31.3 (≈ 57.1 µM) | > 31.3 | > 31.3 | 7.8 (≈ 14.2 µM) | 31.3 (≈ 57.1 µM) | 7.8 (≈ 14.2 µM) | > 31.3 | > 31.3 | 31.3 (≈ 57.1 µM) | > 31.3 | > 31.3 | 
COc1ccccc1N/N=C(\C)c1ccc(-c2ccc(/C(C)=N/Nc3ccccc3OC)cc2)cc1 | inactive | inactive | inactive | 15.6 (≈ 32.6 µM) | > 31.3 | > 31.3 | > 31.3 | > 31.3 | > 31.3 | 31.3 (≈ 65.4 µM) | > 31.3 | 31.3 (≈ 65.4 µM) | 31.3 (≈ 65.4 µM) | > 31.3 | > 31.3 | > 31.3 | 
